According to EP2253617A1, “Halogenated compounds as pesticides” (Bayer CropScience AG, priority 2009, dated 2010):
Where two headings read alike, the source gives them in different places.

How the values were obtained:
Phaedon cochleariae = assay: Phaedon test (PHAECO spray treatment); assay type: in vivo; settings: sprayed Chinese cabbage leaf discs, larvae, after 7 days, 100 % = all beetle larvae killed
From the text: Phaedon-Test (PHAECO Spritzbehandlung)
(§1) • Lösungsmittel: 78,0 GewichtsteileAceton 1,5 Gewichtsteile Dimethylformamid • Emulgator: 0,5 Gewichtsteile Alkylarylpolyglykolether
(§2) Zur Herstellung einer zweckmäßigen Wirkstoffzubereitung vermischt man 1 Gewichtsteil Wirkstoff mit den angegebenen Mengen Lösungsmittel und Emulgator und verdünnt das Konzentrat mit emulgatorhaltigem Wasser auf die gewünschte Konzentration.
Chinakohlblattscheiben (Brassica pekinensis) werden mit einer Wirkstoffzubereitung der gewünschten Konzentration gespritzt und nach dem Abtrocknen mit Larven des Meerrettichblattkäfers (Phaedon cochleariae) besetzt.
Nach 7 Tagen wird die Wirkung in % bestimmt. Dabei bedeutet 100 %, dass alle Käferlarven abgetötet wurden; 0 % bedeutet, dass keine Käferlarven abgetötet wurden.

Spodoptera frugiperda = Spodoptera frugiperda test (SPODFR spray treatment); assay type: in vivo; settings: 500 g/ha, sprayed maize leaf discs, caterpillars, after 7 days; 100 % = all caterpillars killed
From the text: Spodoptera frugiperda-Test (SPODFR Spritzbehandlung)
as §1, §2
Maisblattscheiben (Zea mays) werden mit einer Wirkstoffzubereitung der gewünschten Konzentration gespritzt und nach dem Abtrocknen mit Raupen des Heerwurms (Spodoptera frugiperda) besetzt.Nach 7 Tagen wird die Wirkung in % bestimmt. Dabei bedeutet 100 %, dass alle Raupen abgetötet wurden; 0 % bedeutet, dass keine Raupe abgetötet wurde.

physchem [1] = assay: physchem
Tetranychus urticae = assay type: in vivo; settings: foliar, 144 h
From the text: Tetranychus-Test, OP-resistent (TETRUR Spritzbehandlung)
as §1, §2
Bohnenblattscheiben (Phaseolus vulgaris), die von allen Stadien der Gemeinen Spinnmilbe (Tetranychus urticae) befallen sind, werden mit einer Wirkstoffzubereitung der gewünschten Konzentration gespritzt.
Nach 6 Tagen wird die Wirkung in % bestimmt. Dabei bedeutet 100 %, dass alle Spinnmilben abgetötet wurden; 0 % bedeutet, dass keine Spinnmilben abgetötet wurden.

physchem [2] = assay: physchem; remark: listed apart in the source

SMILES | Wirkung (Phaedon cochleariae; 500 g/ha) | Wirkung (Spodoptera frugiperda) | chromatographic logP (physchem [1]) | Wirkung (Tetranychus urticae; 500 g/ha) | chromatographic logP (physchem [2]) | Wirkung (Phaedon cochleariae; 100 g/ha) | Wirkung (Tetranychus urticae; 100 g/ha)
Cc1nc(C(F)(F)F)ccc1C(=O)Nc1ccc(Cl)c(C(=O)Nc2ccc(F)cc2)c1 [Ia-3, N-{4-Chlor-3-[(4-fluorphenyl)carbamoyl]phenyl}-2-methyl-6-(trifluormethyl)nicotinamid] | 100% | 100% | 3.15 | – | – | – | –
Cn1nc(C(F)(F)C(F)(F)F)c(C(F)(F)F)c1C(=O)Nc1ccc(Cl)c(C(=O)Nc2cccc(Cl)n2)c1 [Ia-19] | 100% | 100% | – | 100% | 3.94 | – | –
O=C(Nc1ccc(F)cc1)c1cc(NC(=O)c2cnc(C(F)(F)C(F)(F)F)nc2C(F)F)ccc1Cl [Ia-10] | 100% | – | 3.67 | – | – | – | –
Cn1nc(C(F)(F)C(F)(F)F)c(C(F)(F)F)c1C(=O)Nc1ccc(Cl)c(C(=O)Nc2cc(Cl)c(Cl)c(Cl)c2)c1 [Ia-44] | 100% | 100% | – | – | 5.15 | – | –
Cn1nc(C(F)(F)C(F)(F)F)c(Br)c1C(=O)Nc1ccc(Cl)c(C(=O)Nc2ccc(Cl)cc2)c1 [Ia-38] | 80% | – | 4.43 | – | – | – | –
Cn1nc(C(F)(F)C(F)(F)F)c(Br)c1C(=O)Nc1ccc(Cl)c(C(=O)Nc2ccc(Cl)cn2)c1 [Ia-35] | 100% | 80% | – | – | – | – | –
O=C(Nc1ccc(F)cc1)c1cc(NC(=O)c2cnc(C(F)(F)C(F)(F)F)nc2C(F)(F)C(F)(F)F)ccc1Cl [Ia-34] | 100% | 100% | 4.36 | 80% | – | – | –
COc1ccc(NC(=O)c2cc(NC(=O)c3c(C(F)(F)F)c(C(F)(F)C(F)(F)F)nn3C)ccc2Cl)cc1 [Ia-12] | – | 100% | – | – | 3.68 | – | –
Cn1nc(C(F)(F)C(F)(F)F)c(C(F)(F)F)c1C(=O)Nc1ccnc(C(=O)Nc2ccc(F)cc2)c1 [Ib-1, N-[2-(4-fluor-phenylcarbamoyl)pyrid-4-yl]-1-methyl-3-(pentafluorethyl)-4-(trifluormethyl)-1H-pyrazol-5-carbonsäureamid] | – | – | 4.3 | – | – | – | –
Cn1nc(C(F)(F)C(F)(F)F)c(C(F)(F)F)c1C(=O)Nc1ccc(Br)c(C(=O)Nc2ccc(F)cc2)n1 [Ic-1, N-[3-Brom-2-(4-fluor-phenylcarbamoyl)pyrid-6-yl]-1-methyl-3-(pentafluorethyl)-4-(trifluormethyl)-1H-pyrazol-5-carbonsäureamid] | 100% | 100% | 4.45 | – | – | – | –
O=C(Nc1cccc(Cl)c1)c1cc(NC(=O)c2cnc(C(F)(F)C(F)(F)F)nc2C(F)(F)F)ccc1Cl [Ia-32, N-{4-Chlor-3-[(3-chlorphenyl)carbamoyl]phenyl}-2-(pentafluorethyl)-4-(trifluormethyl)pyrimidin-5-carboxamid] | 100% | 100% | 4.32 | – | – | – | –
Cn1nc(C(F)(F)C(F)(F)F)c(C(F)(F)F)c1C(=O)Nc1ccc(Cl)c(C(=O)Nc2cccc(C(F)(F)F)c2)c1 [Ia-37] | 100% | 100% | – | – | 4.4 | – | –
Cn1nc(C(F)(F)C(F)(F)F)c(C(F)(F)F)c1C(=O)Nc1ccc(Cl)c(C(=O)Nc2ccnc(Cl)c2)c1 [Ia-6] | 100% | 100% | – | 80% | 3.37 | – | –
Cn1nc(C(F)(F)C(F)(F)F)c(C(F)(F)F)c1C(=O)Nc1ccc(Cl)c(C(=O)Nc2cccnc2Cl)c1 [Ia-13] | 100% | 100% | – | 90% | 3.73 | – | –
O=C(Nc1ccc(F)cc1)c1cc(NC(=O)c2cnc(C(F)(F)C(F)(F)F)nc2C(F)(F)F)ccc1Cl [Ia-20] | 100% | 100% | 3.98 | – | – | – | –
Cc1nc(C(F)(F)F)ccc1C(=O)Nc1ccc(Cl)c(C(=O)Nc2cccc(Cl)c2)c1 [Ia-9] | 80% | – | 3.6 | – | – | – | –

SMILES | Wirkung (Phaedon cochleariae; 500 g/ha) | Wirkung (Spodoptera frugiperda) | chromatographic logP (physchem [1]) | Wirkung (Tetranychus urticae; 500 g/ha) | chromatographic logP (physchem [2]) | Wirkung (Phaedon cochleariae; 100 g/ha) | Wirkung (Tetranychus urticae; 100 g/ha)
Cn1nc(C(F)(F)C(F)(F)F)c(C(F)(F)F)c1C(=O)Nc1ccc(Cl)c(C(=O)Nc2cnccc2Cl)c1 [Ia-4] | 100% | 80% | – | – | 3.33 | – | –
Cn1nc(C(F)(F)C(F)(F)F)c(C(F)(F)F)c1C(=O)Nc1ccc(Cl)c(C(=O)Nc2ccc(F)c(C(F)(F)F)c2)c1 [Ia-39] | 100% | 100% | – | – | 4.51 | – | –
Cn1nc(C(F)(F)F)c(Br)c1C(=O)Nc1ccc(Cl)c(C(=O)Nc2ccc(Cl)nc2)c1 [Ia-7] | – | – | 3.42 | – | – | 100% | 80%
Cc1cc(NC(=O)c2cc(NC(=O)c3c(C(F)(F)F)c(C(F)(F)C(F)(F)F)nn3C)ccc2Cl)c(Cl)cc1F [Ia-41] | 100% | – | – | – | 4.64 | – | –
Cn1nc(Cn2nc(C(F)(F)C(F)(F)F)cc2C(F)(F)C(F)(F)F)c(C(F)(F)F)c1C(=O)Nc1ccc(Cl)c(C(=O)Nc2ccc(F)cc2)c1 [Ia-43] | 100% | 100% | 4.99 | – | – | – | –
Cc1cc(F)ccc1NC(=O)c1cc(NC(=O)c2c(C(F)(F)F)c(C(F)(F)C(F)(F)F)nn2C)ccc1Cl [Ia-23] | 100% | 100% | – | 90% | 4.05 | – | –
O=C(Nc1ccc(F)cc1)c1cc(NC(=O)c2cnc(C(F)(F)C(F)(F)F)nc2C2CC2)ccc1Cl [Ia-24] | 100% | 100% | 4.08 | – | – | – | –
Cn1nc(C(F)(F)C(F)(F)F)c(C(F)(F)F)c1C(=O)Nc1ccc(Cl)c(C(=O)Nc2ccc(Cl)c(Cl)c2)c1 [Ia-42, N-{4-Chlor-3-[(3,4-dichlorphenyl)carbamoyl]phenyl}-1-methyl-3-(pentafluorethyl)-4-(trifluormethyl)-1H-pyrazol-5-carboxamid] | 100% | 100% | – | – | 4.65 | – | –
Cc1c(NC(=O)c2cc(NC(=O)c3c(C(F)(F)F)c(C(F)(F)C(F)(F)F)nn3C)ccc2Cl)ccc(F)c1Cl [Ia-33] | 100% | 100% | – | 90% | 4.34 | – | –
O=C(Nc1cccc(Cl)c1)c1cc(NC(=O)c2cnc(C(F)(F)C(F)(F)F)nc2C(F)F)ccc1Cl [Ia-25] | 100% | 100% | 4.08 | – | – | – | –
O=C(Nc1ccc(Cl)c(C(=O)Nc2ccc(F)cc2)c1)c1csc(C(F)(F)F)n1 [Ia-5] | – | – | 3.35 | – | – | – | –
O=C(Nc1ccc(Cl)c(C(=O)Nc2cccc(Cl)c2)c1)c1csc(C(F)(F)F)n1 [Ia-14] | – | – | 3.82 | – | – | – | –
Cn1nc(C(F)(F)C(F)(F)F)c(C(F)(F)F)c1C(=O)Nc1ccc(Cl)c(C(=O)Nc2ccncc2)c1 [Ia-1] | 100% | – | – | – | 1.99 | – | –
Cn1nc(C(F)(F)C(F)(F)F)c(C(F)(F)F)c1C(=O)Nc1ccc(Cl)c(C(=O)Nc2ccc(Cl)cn2)c1 [Ia-27] | 100% | 100% | – | – | 4.17 | – | –
O=C(Nc1cccc(Cl)c1)c1cc(NC(=O)c2cnc(C(F)(F)C(F)(F)F)nc2C2CC2)ccc1Cl [Ia-40] | – | 100% | 4.54 | – | – | – | –
